Reference: US20240307423A1, “FRACTIONS OF, AND MOLECULES RELEASED IN, PROTEIN RICH PLASMA WHICH INHIBIT IMMUNE RESPONSES AND REDUCE INFLAMMATION, AND METHODS OF OBTAINING” (NEW YORK SOCIETY FOR THE RELIEF OF THE RUPTURED AND …, priority 2021, published 2024)

Columns and labels:
[1] = system: TLR9-activated human plasmacytoid dendritic cells (pDCs); assay: IFN-α secretion (ELISA) by purified pDCs activated with TLR9 ligand alone (CpG1018 / CpG C274); assay type: cell-based; details: without CXCL4; various dilutions
Description: (§1) PBMCs were prepared using Ficoll-Paque density gradient from fresh blood under internal Institutional Review Board-approved protocols. pDCs were isolated as previously described (Guiducci et al. 2008) using either using negative depletion (Miltenyi Biotech) or following cell sorting using a […]. All BDCA4+ cells also express BDCA2 (results not shown). As a result, pure pDCs were obtained and no markers for neutrophils (CD66) or myeloid cells were found by PCR.
(§2) For the TLR9 activation in pDCs, the cells were incubated in complete media alone, or CpG-B 1018 (0.25 or 1 μM), or CpG-C 274 at similar concentrations. In some assays, cells were also incubated with 10 μg/ml CXCL4 (R&D systems).
(§3) Supernatant from B cells and pDCs 24 hour culture was used for quantification of secreted IFNα with the use of an enzyme-linked immunosorbent assay (ELISA) (Mabtech) performed according to the manufacturer's protocol.
(§4) Data were analyzed using a Mann-Whitney U-test (t test using non parametric criteria for independent samples). Comparisons between PBMC and pDCs-depleted PBMC were tested using a parametric paired t-test. All analyses were performed using Prism software (GraphPad Software). Differences were considered significant at a P level less than 0.05 with *p<0.05; **p<0.01; ***p<0.001.

[2] = system: TLR9+CXCL4-activated human plasmacytoid dendritic cells (pDCs); assay: IFN-α secretion (ELISA) by purified pDCs activated with CpG-B (TLR9 ligand) + CXCL4; assay type: cell-based; details: CXCL4 present
Description: as §1, §2, §3, §4

SMILES: CC(=O)N[C@H]1[C@H]([C@H](O)[C@H](O)CO)O[C@@](O)(C(=O)O)C[C@@H]1O [N-Acetylneuraminic acid, 5-(acetylamino)-3,5-dideoxy-D-glycero-α-D-galacto-non-2-ulopyranosonic acid]
- inhibitory effect on TLR9-activated pDCs, IFN-α production relative to the TLR9 agonist CpG C274 [1]: significant inhibitory effect
- inhibitory effect on TLR9-activated pDCs, IFN-α production relative to CpG-CXCL4 [2]: significant inhibitory effect
